Measured values from patent publication US11786600B2, “Cliptac composition” (OTSUKA PHARMACEUTICAL CO., LTD., priority 2016, dated 2023).
“Also recorded” adds a separate entry of the source. Each block holds one compound with its values, some of them ahead of it.

Key:
BRD4-1 = target: T1, BRD4-1 (Homo sapiens, UniProt O60885); experiment: AlphaScreen histone peptide displacement assay, BRD4-1; assay type: binding
T1 construct: evaluated against both domains of BRD4, BRD4-1 and BRD4-2; Reaction Biology
From the text: (§1) Experiments performed on HeLa cells.
(§2) FIG. 4: Biological evaluation of Tz-thalidomide against both domains of BRD4, BRD4-1 and BRD4-2. Biological evaluation of Tz-thalidomide (n=2) by AlphaScreen (performed by Reaction Biology).

BRD4-2 = target: T2, BRD4-2 (Homo sapiens, UniProt O60885); experiment: AlphaScreen histone peptide displacement assay, BRD4-2; assay type: binding
T2 construct: evaluated against both domains of BRD4, BRD4-1 and BRD4-2; Reaction Biology
From the text: as §1, §2

BRD4 = target: T3, BRD4 (Homo sapiens, UniProt O60885); experiment: BRD4 degradation by self-assembling CLIPTACs in HeLa cells (immunoblot); assay type: cell-based; conditions: for BRD4 level, time course: JQ1-TCO 10 μM then Tz-thalidomide 10 μM
T3 construct: host or cells: HeLa
Description: BRD4 presence was assessed by SDS-PAGE followed by Western Blot using a specific BRD4 antibody.
(§3) HeLa cells (purchased from ATCC) were cultured in Eagle's Minimum Essential Medium (EMEM) supplemented with 10% FBS (Gibco, Life Technologies), 0.1% NEAA (Non-Essential Amino Acid, Gibco, Life Technologies) and 2 mM glutamine and were grown at 37° C. with 5% CO2. A375 and HCT116 cells (purchased from ATCC) were cultured in Dulbecco's Modified Eagle Medium (DMEM) supplemented with 10% FBS (Gibco, Life Technologies) and were grown at 37° C. with 5% CO2.
(§4) The medium was removed and the cells were washed with PBS (2×). A375 and HCT116 cells were lysed with TG Lysis buffer (150 μL per well) and kept on ice for 20 min. The cell lysates were centrifuged at 14000 rpm for 10 min at 4° C. and the protein concentration was determined by a Pierce™ BCA Protein Assay Kit. Samples were normalised, separated on 4-12% NuPAGE gels (Life Technologies) and transferred onto a nitrocellulose membrane (Novex). The membrane was blocked in blocking buffer (Odyssey) at r.t. for 1 hour and subjected to immunodetection using a total ERK1/2 primary antibody (p44/42 MAPK ERK1/2, Cell Signaling Technologies®, 1:1000) and anti-actin antibody (Abcam ab6276, 1:10000) in blocking buffer, at r.t. for 1 hour. After washing 3× with a Tris-buffered saline (TBS) with 0.1% Tween-20 solution (TBST), the membrane was incubated with fluorescently labelled secondary antibody (IRDye800CW Donkey Anti-Rabbit, 1:10 000 and IRDye680RD Donkey Anti-Mouse, 1:10 000) for 1 hour at r.t. in the dark. After washing 2× with a TBS solution, the membrane was imaged on an Li-Cor Biosciences Odyssey system in the 800 nm and 700 nm channels.
The same procedure was followed with HeLa cells using RIPA Lysis buffer (150 μL per well) and 5% non-fat milk in TBST as blocking buffer. Immunodetection was performed using an anti-BRD4 antibody (Bethyl Laboratories, A301:985A100, 1:1000) and anti-actin antibody (Abcam ab6276, 1:10000) in 5% non-fat milk in TBST, at 4° C. for 48 hours.
(§5) HeLa, A375 and HCT116 cells were seeded in 6-well plates at 1.5.10^5 cells/mL with 2 mL/well and allowed to attach overnight before being incubated with the appropriate compounds. TCO-ligand was added from a 1000× stock in DMSO-d6 (2 μL) to the plates. The cells were incubated at 37° C. in an atmosphere of 5% CO2 and air for 18 hours. Tz-Thalidomide was added from a 1000× stock in DMSO-d6 (2 μL) to the plates. The cells were incubated at 37° C. in an atmosphere of 5% CO2 and air for 18 hours.
(§6) When Carfilzomib was used, the compound was added from a 1000× stock in DMSO-d6 (2 μL) 4 hours before the addition of Tz-thalidomide. For control experiments, untagged ligands were added instead of the TCO-compound and methyl-Tz-thalidomide was used instead of Tz-thalidomide. For the time course experiments, the cells were incubated for the indicated time after the addition of Tz-thalidomide and consequently lysed.

ERK1/2 [1] = experiment: ERK1/2 degradation by self-assembling CLIPTACs in A375 cells (immunoblot); assay type: cell-based; conditions: for ERK1/2 degradation, time course: Probe 1 10 μM then Tz-thalidomide 10 μM
Description: (§7) ERK1 and 2 levels were assessed by SDS-PAGE followed by Western Blot using a total ERK1/2 antibody. […] At low concentration (0.1 μM), the level of ERK1/2 was unchanged. […] Quantitation of the signal intensities allowed calculation of a DC50 of 490 nM.
as §3, §4, §5, §6

bromodomain family = experiment: Thermal shift selectivity across the bromodomain family; assay type: binding; conditions: 10 μM, duplicate
Description: Finally, the selectivity profile of JQ1-TCO against the BET family was determined by thermal shift assay. […] (Liu et al. (2012) ChromoHub: a data hub for navigators of chromatin-mediated signalling. Bioinformatics 28: 2205-2206)
(b) Selectivity of JQ1-TCO (10 μM, duplicate, thermal shift) across the bromodomain family. (c) Immunoblot for BRD4 and Actin showing JQ1-TCO concentration dependent downregulation of BRD4 protein levels. HeLa cells were treated with JQ1-TCO for 18 hours followed by treatment with Tz-thalidomide (10 μM) for 18 hours. (d) Immunoblot for BRD4 and Actin showing Tz-thalidomide concentration dependent downregulation of BRD4 protein levels. HeLa cells were treated with JQ1-TCO (10 μM) for 18 hours followed by treatment with Tz-thalidomide for 18 hours. (e) Immunoblot for BRD4 and Actin showing time-dependent downregulation of BRD4 protein levels. HeLa cells were treated with JQ1-TCO (10 μM) for 18 hours followed by treatment with Tz-thalidomide (10 μM) for the indicated time. […] HeLa cells were treated with (−)JQ1-TCO for 18 hours followed by treatment with Tz-thalidomide for 18 hours. […] HeLa cells were treated with JQ1-TCO for 18 hours followed by treatment with Methyl-Tz-thalidomide for 18 hours. […] Experiments performed on HeLa cells.

ERK2 = target: T4, ERK2 (Homo sapiens, UniProt P28482); experiment: ERK2 degradation by self-assembling CLIPTACs in HCT116 cells (immunoblot); assay type: cell-based; conditions: high concentrations of Probe 1 18 h then Tz-thalidomide 10 μM 18 h
T4 construct: host or cells: HCT116
Description: as §7, §3
The medium was removed and the cells were washed with PBS (2×). A375 and HCT116 cells were lysed with TG Lysis buffer (150 μL per well) and kept on ice for 20 min. The cell lysates were centrifuged at 14000 rpm for 10 min at 4° C. and the protein concentration was determined by a Pierce™ BCA Protein Assay Kit. Samples were normalised, separated on 4-12% NuPAGE gels (Life Technologies) and transferred onto a nitrocellulose membrane (Novex). […]

A375 cells = experiment: Activity in A375 cells (GI50); assay type: cell-based; conditions: Homo sapiens, A-375
ERK1/2 [2] = experiment: ERK1/2 degradation by self-assembling CLIPTACs in A375 cells (immunoblot); assay type: cell-based
[3] = 4-hour pre-treatment with Carfilzomib (1 μM) in the CLIPTAC experiment

T4 sequence (P28482 whole entry): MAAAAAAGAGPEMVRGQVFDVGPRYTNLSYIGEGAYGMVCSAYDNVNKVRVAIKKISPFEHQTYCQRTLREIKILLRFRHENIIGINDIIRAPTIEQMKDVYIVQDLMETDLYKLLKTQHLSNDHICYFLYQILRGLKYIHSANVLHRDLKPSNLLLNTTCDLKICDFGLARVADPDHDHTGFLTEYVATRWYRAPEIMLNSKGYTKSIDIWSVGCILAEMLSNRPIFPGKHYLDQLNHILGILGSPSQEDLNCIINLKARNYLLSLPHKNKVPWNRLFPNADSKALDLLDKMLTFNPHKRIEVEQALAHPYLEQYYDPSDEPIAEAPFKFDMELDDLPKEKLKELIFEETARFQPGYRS

Structure (SMILES): Cc1sc2c(c1C)C(c1ccc(Cl)cc1)=N[C@H](CC(=O)NCCCNC(=O)OC1CC/C=C/CCC1)c1nnc(C)n1-2 (single isomer, unassigned; (-)) [(−)JQ1-TCO]
IC50 (BRD4-1): 13.5 ± 0.21 µM
IC50 (BRD4-2): 24.3 ± 0.92 µM
BRD4 degradation (BRD4; (−)JQ1-TCO at any concentration tested, then Tz-thalidomide 10 μM): no BRD4 degradation

Structure (SMILES): Cc1sc2c(c1C)C(c1ccc(Cl)cc1)=N[C@@H](CC(=O)NCCCNC(=O)OC1CC/C=C/CCC1)c1nnc(C)n1-2 (stereo partly drawn) [JQ1-TCO, (4E)-Cyclooct-4-en-1-yl N-(3-{2-[(9S)-7-(4-chlorophenyl)-4,5,13-trimethyl-3-thia-1,8,11,12-tetraazatricyclo[8.3.0.0^2,6]trideca-2(6),4,7,10,12-pentaen-9-yl]acetamido}propyl)carbamate]
IC50 (BRD4-1): 0.016 ± 0.003 µM
IC50 (BRD4-2): 0.063 ± 0.002 µM
BRD4 level, time course (BRD4; after 16 hours): clearly dropped
BRD4 level, time course (BRD4; after 24 hours): complete degradation
BRD4 level, time course (BRD4; up to 8 hours): unchanged
BRD4 degradation (BRD4; JQ1-TCO 1 and 0.3 μM 18 h, then Tz-thalidomide 10 μM 18 h): partial degradation
BRD4 degradation (BRD4; JQ1-TCO 10 and 3 μM 18 h, then Tz-thalidomide 10 μM 18 h): complete degradation
DC50 (BRD4; JQ1-TCO 18 h followed by fixed Tz-thalidomide (10 μM) 18 h, read-out: 50% degradation concentration (DC50) of BRD4): 0.42 µM
BRD4 level (BRD4; compound alone): unaffected
Selectivity across the bromodomain family (thermal shift) (bromodomain family): bind selectively to subfamily II

Structure (SMILES): C=CC(=O)Nc1ccccc1Nc1nc(Nc2ccnc(C#CCCNC(=O)OC3CC/C=C/CCC3)c2)ncc1Cl (stereo not drawn) [Probe 1, (4E)-Cyclooct-4-en-1-yl N-(4-{4-[(5-chloro-4-{[2-(prop-2-enamido)phenyl]amino}pyrimidin-2-yl)amino]pyridin-2-yl}but-3-yn-1-yl) carbamate]
ERK1/2 level (ERK1/2 [1]; Probe 1 0.1 μM 18 h then Tz-thalidomide 10 μM 18 h): unchanged
ERK1/2 degradation, time course (ERK1/2 [1]; after 8 hours): partially
ERK1/2 degradation, time course (ERK1/2 [1]; after 16 hours): complete
ERK1/2 degradation (ERK1/2 [1]; Probe 1 0.3 and 1 μM 18 h then Tz-thalidomide 10 μM 18 h): Partial degradation
DC50 (ERK1/2 [1]; Probe 1 18 h then Tz-thalidomide 10 μM 18 h): 0.49 µM
ERK1/2 suppression (ERK1/2 [1]; Probe 1 at higher concentrations 18 h then Tz-thalidomide 10 μM 18 h): complete
ERK1/2 level (ERK1/2 [1]; compound alone): unmodified
ERK2 degradation (ERK2): complete degradation
GI50 (A375 cells): 0.47 ± 0.14 µM

More lines, main results first:

BRD4 level (BRD4; [3]): remained the same as in untreated cells
Structure (SMILES): CC(C)C[C@H](NC(=O)[C@H](CCc1ccccc1)NC(=O)CN1CCOCC1)C(=O)N[C@@H](Cc1ccccc1)C(=O)N[C@@H](CC(C)C)C(=O)[C@@]1(C)CO1 [Carfilzomib, reference compound]
ERK1/2 degradation (ERK1/2 [1]; [3]): rescued

BRD4 degradation (BRD4; JQ1-TCO 10 μM 18 h, then Tz-thalidomide 10 and 3 μM 18 h): completely degraded
BRD4 degradation (BRD4; JQ1-TCO 10 μM 18 h, then Tz-thalidomide at lower concentrations 18 h): partially
BRD4 level (BRD4; compound alone): unaffected
Structure (SMILES): Cc1nnc(-c2ccc(CNC(=O)CCCCCOc3cccc4c3C(=O)N(C3CCC(=O)NC3=O)C4=O)cc2)nn1 (stereo not drawn) [Tz-thalidomide, 6-{[2-(2,6-Dioxopiperidin-3-yl)-1,3-dioxo-2,3-dihydro-1H-isoindol-4-yl]oxy}-N-{[4-(6-methyl-1,2,4,5-tetrazin-3-yl)phenyl]methyl}hexanamide]
ERK1/2 level (ERK1/2 [1]; compound alone): unmodified
ERK1/2 degradation profile (ERK1/2 [2]; Probe 1 1 μM 4 hours then Tz-thalidomide 1 μM 18 hours): best degradation profile
ERK1/2 degradation (ERK1/2 [2]; Probe 1 4 h then Tz-thalidomide 0.1 and 0.3 μM): not observed

BRD4 level (BRD4; JQ1-TCO 10 μM then methyl-Tz-thalidomide 10 μM): remained unchanged
BRD4 level (BRD4; JQ1-TCO 10 μM then methyl-Tz-thalidomide 10 μM, listed as Methyl-Tz-thalidomide): no BRD4 degradation
Structure (SMILES): Cc1nnc(-c2ccc(CNC(=O)CCCCCOc3cccc4c3C(=O)N(C3CCC(=O)N(C)C3=O)C4=O)cc2)nn1 (stereo not drawn) [methyl-Tz-thalidomide, N-{[4-(6-Methyl-1,2,4,5-tetrazin-3-yl)phenyl]methyl}-6-{[2-(1-methyl-2,6-dioxopiperidin-3-yl)-1,3-dioxo-2,3-dihydro-1H-isoindol-4-yl]oxy}hexanamide]
ERK1/2 degradation compared with Tz-thalidomide (ERK1/2 [1]; Probe 1 18 h then methyl-Tz-thalidomide 10 μM 18 h): far less effective; also recorded: reduced ERK1/2 degradation
